# Patent publication US12570657B2, “Mesylate salts of heterocyclic cytokinins, compositions containing these derivatives and use thereof” (UNIVERZITA PALACKEHO V OLOMOUCI, priority 2020, dated 2026)
# pIC50: −log10 of the molar value. Structures can show the parent of a compound that is named as a salt.
# Assays:
# [1] = test system: K562 (chronic myeloid leukemia); assay: In vitro cytotoxicity, Calcein AM assay, K-562; assay type: cell-based; details: 3-day Calcein-AM assay
# Source text: (§1) Because toxic compounds adversely affect cell metabolic processes, many standard cytotoxicity assays are based on measuring the rate of metabolism of various artificial substrates. The resulting product is then quantified, for example, by spectrometry. Assays can be easily modified for use in 96-well plates, A microtiter assay based on the quantification of Calcein AM metabolism was used to evaluate the cytotoxicity of cytokinins, for example meta-topolin, ortho-topolin, kinetin, BAP or its mesylate salts, but also a number of other cytokinin mesylate derivatives according to the invention. The test is widely used in drug screening programs and in chemosensitivity testing. In living cells, Calcein AM is enzymatically hydrolyzed and the accumulation of the resulting calcein is manifested by green fluorescence. […] These cells were maintained in standard DMEM or RPMI medium (Sigma, MO, USA) supplemented with heat-inactivated fetal bovine serum (10%) with 2 mM L-glutamine and penicillin-streptomycin (1%) under standard cell culture conditions (37° C., 5% CO2 in a humid environment) and subcultured two or three times a week using a standard trypsinization procedure. Approximately 10,000 cells in 80 μl of medium were seeded in a 96-well microtiter plate. After 12 hours of incubation, the compounds to be tested were added in 20 μl aliquots. Control cultures were treated with DMSO alone. […] After 72 hours of incubation, Calcein AM solution (Molecular Probes) was added to a final concentration of 1 μg/ml and the cells were incubated for another hour.
# (§2) Cytoxicity of compounds was tested on panel of cell lines of different histogenetic and species origin.
# [2] = test system: cytokinin-dependent tobacco callus; assay: Tobacco callus biotest (stimulation of plant cell division); assay type: cell-based, Nicotiana tabacum L. cv. Wisconsin 38; details: for activity (%) [10^−5 mol · l^−1 BAP = 100%]: callus growth at concentration with highest activity, 10^−5 M BAP = 100%; for concentration with highest activity: tobacco callus fresh weight increase, four weeks
# Method: Stimulation effect of the cytokinin mesylates was tested in tobacco callus biotest using cytokinin dependent tobacco callus. Cytokinin-dependent tobacco callus Nicotiana tabacum L. cv. […] Subcultivation was carried out every three weeks. Fourteen days before the bioassay, the callus tissue was transferred to the media without BAP. Biological activity was determined from the increase in fresh callus weight after four weeks of cultivation. Five replicates were prepared for each cytokinin concentration and the entire test was repeated twice. […] Relative activity of the compound at this concentration was calculated (Tab. 15). The activity obtained for 10^−5 M 6-benzylaminopurine (BAP) was postulated as 100%. The cytokinin bases to be tested were dissolved in dimethylsulfoxide (DMSO) and the solution brought up to 10^−3 M with distilled water. The mesylate salts were dissolved directly in distilled water.
# [3] = test system: CEM (T-lymphoblastic leukemia); assay: In vitro cytotoxicity, Calcein AM assay, CEM; assay type: cell-based; details: 3-day Calcein-AM assay
# Source text: as §1, §2
# [4] = test system: MCF-7 (breast adenocarcinoma); assay: In vitro cytotoxicity, Calcein AM assay, MCF7; assay type: cell-based; details: 3-day Calcein-AM assay
# Source text: as §1, §2
# [5] = test system: winter wheat leaf segments; assay: Senescence bioassay: retention of chlorophyll in excised winter wheat leaf tips; assay type: in vivo, Triticum aestivum cv. Hereward; details: for activity (%) [10^−4 mol · l^−1 BAP = 100%]: chlorophyll retention at concentration with highest activity, 10^−4 M BAP = 100%; for concentration with highest activity: chlorophyll retention, excised wheat leaf tips, 96 h dark
# Method: Seeds of winter wheat, Triticum aestivum cv. Hereward, were washed under running water for 24 hours and then sown on vermiculite soaked with Knop's solution. They were placed in a growth chamber at 25° C. with a 16/8 h light/dark period at 50 μmol·m^−2·s^−1. After 7 days, the first leaf was fully developed and the second leaf had started to grow. A tip section of the first leaf, approximately 35 mm long, was removed from 5 seedlings and trimmed slightly to a combined weight of 100 mg. The basal ends of the five leaf tips were placed in the wells of a microtiter polystyrene plate containing 150 μl of each tested compound solution. The entire plate was inserted into a plastic box lined with paper tissues soaked in distilled water to prevent leaf sections from drying out. After 96 h incubation in the dark at 25° C., the leaves were removed and chlorophyll extracted by heating at 80° C. for 10 min in 5 ml of 80% ethanol (v/v). The sample volume was then restored to 5 ml by the addition of 80% ethanol (v/v). The absorbance of the extract was recorded at 665 nm. In addition, chlorophyll extracts from fresh leaves and leaf tips incubated in deionised water were measured. […] Relative activity of the compound at this concentration was calculated (Tab. 3). The activity obtained for 10^−4 M 6-benzylaminopurine (BAP) was postulated as 100%. The values shown are means of five replicates and the whole experiment was repeated twice. The tested cytokinin bases were dissolved in dimethylsulfoxide (DMSO) and the solution brought up to 10^−3 M with distilled water. Cytokinin mesylate salts which are more water-soluble (BAP mesylate, meta-topolin mesylate and kinetin mesylate) could be directly dissolved to form a 10^−3 M solution in distilled water.
# HOS (human osteosarcoma) = assay: In vitro cytotoxicity, Calcein AM assay, HOS; assay type: cell-based; details: 3-day Calcein-AM assay
# Source text: as §1, §2
# [6] = test system: HL-60 (promyelocytic, leukemia); assay: In vitro cytotoxicity, Calcein AM assay, HL60; assay type: cell-based; details: 3-day Calcein-AM assay
# Source text: as §1, §2
# [7] = test system: Spring barley (variety Francin); assay: Field trial: grain yield and productive tillers of spring barley after foliar spray; assay type: in vivo; details: 5 uMol
# Method: Spring barley (variety Francin) was treated in 2019 at the locality in Olomouc, sprayed with substances—marked BAP (benzylaminopurine), meta-topolin mesylate and BAP mesylate. The seed was 3.5 million germinating seeds, the experiment was established in 5 randomized replicates for each variant, the control was an untreated variant. The experiment was performed according to the GEP (Good Experimental Practice) methodology, the size of individual plots was 10 m^2. The application of the substances was carried out at a rate of 300 l/ha, in the growth phase BBCH 31-33 (beginning of peeling).
# [8] = application BBCH 31-33, untreated control = 100
smiles,measurement,setting,value
"CC(CO)CCNc1ncnc2[nH]cnc12.CS(=O)(=O)O (racemic) [DHZ mesylate, (RS)-4-((9H-Purin Ylamino)-2-Methylbutan-1-ol) Methanesulphonate]",pIC50,[1],< 3.78
same,activity (%) [10^−5 mol · l^−1 BAP = 100%],[2],78%
same,concentration with highest activity,[2],10^−6 mol · l^−1
same,pIC50,[3],< 3.78
same,pIC50,[4],< 3.78
same,activity (%) [10^−4 mol · l^−1 BAP = 100%],[5],82%
same,concentration with highest activity,[5],10^−4 mol · l^−1
CS(=O)(=O)O.Fc1ccc(CNc2ncnc3nc[nH]c23)c(F)c1 [2.4diFBAP mesylate],activity (%) [10^−4 mol · l^−1 BAP = 100%],[5],141%
same,concentration with highest activity,[5],10^−5 mol · l^−1
"CS(=O)(=O)O.Clc1ccccc1CNc1ncnc2nc[nH]c12 [2ClBAP mesylate, 6-(2-chlorobenzylamino)purine mesylate]",pIC50,HOS (human osteosarcoma); mesylate,4.00
same,pIC50,[1]; mesylate,4.04
same,activity (%) [10^−5 mol · l^−1 BAP = 100%],[2],97%
same,pIC50,[3]; mesylate,3.95
same,pIC50,[4]; mesylate,3.89
same,activity (%) [10^−4 mol · l^−1 BAP = 100%],[5],122%
"CS(=O)(=O)O.Fc1ccccc1CNc1ncnc2nc[nH]c12 [2FBAP mesylate, 6-(2-fluorobenzylamino)purine mesylate]",pIC50,[1]; mesylate,4.15
same,pIC50,"[6]; Homo sapiens, HL-60, 72 h",3.90
same,activity (%) [10^−5 mol · l^−1 BAP = 100%],[2],110%
same,pIC50,[3]; mesylate,4.00
same,activity (%) [10^−4 mol · l^−1 BAP = 100%],[5],175%
Fc1ccc(CNc2ncnc3nc[nH]c23)c(F)c1 [2MBAP mesylate],activity (%) [10^−5 mol · l^−1 BAP = 100%],[2],121%
same,concentration with highest activity,[2],10^−6 mol · l^−1
same,activity (%) [10^−4 mol · l^−1 BAP = 100%],[5],157%
same,concentration with highest activity,[5],10^−4 mol · l^−1
"COc1ccccc1CNc1ncnc2nc[nH]c12.CS(=O)(=O)O [2MeOBAP mesylate, 6-(2-methoxybenzylamino)purine mesylate]",pIC50,[1]; mesylate,3.93
same,activity (%) [10^−5 mol · l^−1 BAP = 100%],[2],82%
same,pIC50,[3]; mesylate,4.01
same,pIC50,[4]; mesylate,< 3.78
same,activity (%) [10^−4 mol · l^−1 BAP = 100%],[5],271%
"COc1cccc(CNc2ncnc3nc[nH]c23)c1O [2OH3MeOBAP mesylate, 6-(2-hydroxy-3-methoxybenzylamino)purine mesylate]",pIC50,[6]; mesylate,4.17
same,pIC50,[3]; mesylate,4.29
same,pIC50,[4]; mesylate,4.49
"COc1cccc(CNc2ncnc3nc[nH]c23)c1O [2OH3MeOBAP, 6-(2-hydroxy-3-methoxybenzylamino)purine]",pIC50,"[1]; Homo sapiens, K562, 72 h",< 3.78
same,pIC50,"[6]; Homo sapiens, HL-60, 72 h",4.19
same,pIC50,[3]; 72 h,4.38
same,pIC50,"[4]; Homo sapiens, MCF7, 72 h",4.58
CS(=O)(=O)O.Fc1cc(F)cc(CNc2ncnc3nc[nH]c23)c1 [3.5diFBAP mesylate],activity (%) [10^−4 mol · l^−1 BAP = 100%],[5],168%
same,concentration with highest activity,[5],10^−5 mol · l^−1
"CS(=O)(=O)O.Clc1cccc(CNc2ncnc3nc[nH]c23)c1 [3ClBAP mesylate, 6-(3-chlorobenzylamino)purine mesylate]",activity (%) [10^−5 mol · l^−1 BAP = 100%],[2],101%
same,activity (%) [10^−4 mol · l^−1 BAP = 100%],[5],82%
"CS(=O)(=O)O.Fc1cccc(CNc2ncnc3nc[nH]c23)c1 [3FBAP mesylate, 6-(3-fluorobenzylamino)purine mesylate]",pIC50,[1]; mesylate,3.87
same,activity (%) [10^−5 mol · l^−1 BAP = 100%],[2],137%
same,pIC50,[4]; mesylate,< 3.78
same,activity (%) [10^−4 mol · l^−1 BAP = 100%],[5],210%
Clc1ccc(CNc2ncnc3nc[nH]c23)cc1 [4ClBAP],pIC50,HOS (human osteosarcoma),< 3.78
same,pIC50,[1],< 3.78
same,pIC50,[6],< 3.78
same,pIC50,[3],< 3.78
same,pIC50,[4],< 3.78
"CS(=O)(=O)O.Fc1ccc(CNc2ncnc3nc[nH]c23)cc1 [4FBAP mesylate, 6-(4-fluorobenzylamino)purine mesylate]",activity (%) [10^−5 mol · l^−1 BAP = 100%],[2],126%
same,activity (%) [10^−4 mol · l^−1 BAP = 100%],[5],98%
"COc1ccc(CNc2ncnc3nc[nH]c23)cc1 [4MeOBAP mesylate, 6-(4-methoxybenzylamino)purine mesylate]",pIC50,[1]; mesylate,3.93
Fc1ccc(CNc2ncnc3nc[nH]c23)c(F)c1 [6-(2.4-difluorobenzylamino)purine (2.4diFBAP)],activity (%) [10^−4 mol · l^−1 BAP = 100%],[5],139%
same,concentration with highest activity,[5],10^−5 mol · l^−1
Fc1cc(F)cc(CNc2ncnc3nc[nH]c23)c1 [6-(3.5-difluorobenzylamino)purine],activity (%) [10^−4 mol · l^−1 BAP = 100%],[5],156%
same,concentration with highest activity,[5],10^−5 mol · l^−1
"C/C(=C/CNc1ncnc2nc[nH]c12)CO [Cis-zeatin (cZ), Cis-zeatin]",pIC50,HOS (human osteosarcoma),< 3.78
same,pIC50,[6],< 3.78
same,pIC50,[3],< 3.78
same,pIC50,[4],< 3.78
"C/C(=C/CNc1ncnc2[nH]cnc12)CO [cZ mesylate, (Z)-4-((9H-Purin Ylamino)-2-Methylbut-2-En-1-ol) Methanesulphonate]",pIC50,[3],< 3.78
same,pIC50,[4],< 3.78
CS(=O)(=O)O.Oc1cccc(CNc2ncnc3[nH]cnc23)c1 [m-topolin mesylate],Length of plants,[7]; application BBCH 31-33,83.1 cm
same,Medium tillers (number),[7]; application BBCH 31-33,1.25
same,Number of spikes per square meter,[7]; application BBCH 31-33,721.6
same,SUM of tillers,[7]; application BBCH 31-33,5.5
same,Strong tillers (number),[7]; application BBCH 31-33,2.45
same,Weak tillers (number),[7]; application BBCH 31-33,1.8
same,Grain yield (t/ha) at 14% humidity,"[7]; application BBCH 31-33, spring barley",8.01 t/ha
same,"Grain yield, % compared to control",[7]; [8],108.03%
same,"Length of plants, % compared to control",[7]; [8],100.36%
same,"Medium tillers, % compared to control",[7]; [8],59.52%
same,"Number of spikes per square meter, % compared to control",[7]; [8],106.62%
same,"SUM of tillers, % compared to control",[7]; [8],95.65%
same,"Strong tillers, % compared to control",[7]; [8],136.11%
same,"Weak tillers, % compared to control",[7]; [8],97.3%
